Results as given in patent publication US9650339B2, “Inhibitors of histone demethylases” (Gilead Sciences, Inc., priority 2013, dated 2017).

Columns and labels:
Assay type in all cases: biochemical
KDM4A (JMJD2A) = biological target: T1, KDM4A (JMJD2A) (Homo sapiens, UniProt O75164); experiment: Histone lysine demethylase AlphaLISA assay, KDM4A; conditions: read-out: KDM4A HDME Inhibition IC50
T1 construct: 1-350; purchased BPS Bioscience, US; host or cells: E. coli
T1 sequence (O75164 1-350): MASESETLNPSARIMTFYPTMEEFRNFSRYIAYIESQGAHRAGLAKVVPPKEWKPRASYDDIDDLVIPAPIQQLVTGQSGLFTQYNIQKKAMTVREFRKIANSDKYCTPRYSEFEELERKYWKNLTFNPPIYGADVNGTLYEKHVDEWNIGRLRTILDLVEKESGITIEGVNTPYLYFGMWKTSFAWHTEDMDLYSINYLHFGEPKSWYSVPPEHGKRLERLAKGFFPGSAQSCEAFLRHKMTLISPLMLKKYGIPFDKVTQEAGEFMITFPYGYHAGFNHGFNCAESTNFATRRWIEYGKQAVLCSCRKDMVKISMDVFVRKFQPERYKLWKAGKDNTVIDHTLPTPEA
Outline: (§1)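 Enzyme 10 min pre-incubation; + compound (3% DMSO soln) 10 min; + biotin-H3 methyl-Lys peptide, 25 μM L-Asc, 10 μM α-KG, RT. Read: AlphaLISA acceptor beads, then streptavidin donor beads, RT, dark.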

KDM4B (JMJD2B) = biological target: T2, KDM4B (JMJD2B) (Homo sapiens, UniProt O94953); experiment: Histone lysine demethylase AlphaLISA assay, KDM4B; conditions: read-out: KDM4B HDME Inhibition IC50
T2 construct: 2-500; purchased BPS; host or cells: Bac (baculovirus system)
T2 sequence (O94953 2-500): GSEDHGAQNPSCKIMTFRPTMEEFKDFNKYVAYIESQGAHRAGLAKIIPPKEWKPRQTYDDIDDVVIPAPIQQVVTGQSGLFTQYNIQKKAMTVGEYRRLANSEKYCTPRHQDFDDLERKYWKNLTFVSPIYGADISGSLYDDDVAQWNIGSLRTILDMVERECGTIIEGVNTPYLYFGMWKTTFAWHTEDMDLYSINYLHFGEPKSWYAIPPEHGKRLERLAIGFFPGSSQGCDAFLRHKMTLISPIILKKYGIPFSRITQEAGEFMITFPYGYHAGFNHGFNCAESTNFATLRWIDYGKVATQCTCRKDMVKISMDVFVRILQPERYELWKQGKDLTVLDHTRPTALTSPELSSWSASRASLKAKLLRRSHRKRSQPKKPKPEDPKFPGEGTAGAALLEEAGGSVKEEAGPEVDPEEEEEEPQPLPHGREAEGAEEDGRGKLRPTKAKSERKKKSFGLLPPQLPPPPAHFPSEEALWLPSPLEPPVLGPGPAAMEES
Outline: as §1

KDM5B (PLU-1) = biological target: T3, KDM5B (PLU-1) (Homo sapiens, UniProt Q9UGL1); experiment: Histone lysine demethylase AlphaLISA assay, KDM5B; conditions: read-out: KDM5B HDME Inhibition IC50
T3 sequence (Q9UGL1 1-809): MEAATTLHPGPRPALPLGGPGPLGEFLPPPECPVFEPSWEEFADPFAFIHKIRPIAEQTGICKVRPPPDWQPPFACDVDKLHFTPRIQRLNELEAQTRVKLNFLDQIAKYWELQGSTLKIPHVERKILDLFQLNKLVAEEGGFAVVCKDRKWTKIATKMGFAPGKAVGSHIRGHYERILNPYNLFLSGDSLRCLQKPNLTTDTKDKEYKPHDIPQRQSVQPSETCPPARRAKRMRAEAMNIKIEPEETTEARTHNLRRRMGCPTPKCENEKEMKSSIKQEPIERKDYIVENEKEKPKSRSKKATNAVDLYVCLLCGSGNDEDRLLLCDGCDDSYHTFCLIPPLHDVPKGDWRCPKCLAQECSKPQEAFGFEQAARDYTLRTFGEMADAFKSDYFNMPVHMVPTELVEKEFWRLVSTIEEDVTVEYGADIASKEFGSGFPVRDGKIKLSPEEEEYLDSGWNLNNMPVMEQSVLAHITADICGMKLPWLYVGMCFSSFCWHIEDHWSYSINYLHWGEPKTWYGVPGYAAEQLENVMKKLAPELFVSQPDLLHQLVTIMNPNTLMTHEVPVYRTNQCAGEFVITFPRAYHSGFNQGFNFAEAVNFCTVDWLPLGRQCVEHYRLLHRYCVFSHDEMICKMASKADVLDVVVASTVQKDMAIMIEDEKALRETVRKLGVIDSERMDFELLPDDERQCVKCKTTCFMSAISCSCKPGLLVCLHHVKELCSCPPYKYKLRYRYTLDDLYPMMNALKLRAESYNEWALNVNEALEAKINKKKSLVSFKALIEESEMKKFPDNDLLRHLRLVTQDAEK
Outline: as §1

KDM6B (JMJD3) = biological target: T4, KDM6B (JMJD3) (Homo sapiens, UniProt O15054); experiment: Histone lysine demethylase AlphaLISA assay, KDM6B; conditions: read-out: KDM6B HDME Inhibition IC50
T4 construct: 1043-end; purchased BPS; host or cells: Bac (baculovirus system)
T4 sequence (O15054 1043-1682 isoform O15054-1 limits assumed): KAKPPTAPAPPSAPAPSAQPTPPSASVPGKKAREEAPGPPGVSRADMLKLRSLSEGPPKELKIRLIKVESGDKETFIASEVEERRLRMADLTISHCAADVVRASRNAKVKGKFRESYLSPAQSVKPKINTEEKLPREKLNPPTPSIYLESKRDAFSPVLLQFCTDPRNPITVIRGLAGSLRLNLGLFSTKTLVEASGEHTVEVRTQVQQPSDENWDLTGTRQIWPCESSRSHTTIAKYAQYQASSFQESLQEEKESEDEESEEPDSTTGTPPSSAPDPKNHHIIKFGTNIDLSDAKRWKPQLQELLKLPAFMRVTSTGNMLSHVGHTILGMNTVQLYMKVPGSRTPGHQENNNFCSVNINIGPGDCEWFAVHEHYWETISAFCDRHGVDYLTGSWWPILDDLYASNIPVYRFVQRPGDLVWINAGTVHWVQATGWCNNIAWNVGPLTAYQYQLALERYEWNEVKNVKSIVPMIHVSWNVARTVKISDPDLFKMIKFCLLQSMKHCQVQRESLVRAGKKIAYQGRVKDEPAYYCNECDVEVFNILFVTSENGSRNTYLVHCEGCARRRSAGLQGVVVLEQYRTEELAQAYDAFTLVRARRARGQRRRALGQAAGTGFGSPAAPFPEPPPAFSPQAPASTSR
Outline: as §1

KDM7 (PHF8) = biological target: T5, KDM7 (PHF8) (Homo sapiens, UniProt Q9UPP1); experiment: Histone lysine demethylase AlphaLISA assay, KDM7; conditions: read-out: PHF8 HDME Inhibition IC50
T5 construct: KDM7 (PHF8); BRIC; 1-1322; Bac
T5 sequence (Q9UPP1 37-440 limits assumed): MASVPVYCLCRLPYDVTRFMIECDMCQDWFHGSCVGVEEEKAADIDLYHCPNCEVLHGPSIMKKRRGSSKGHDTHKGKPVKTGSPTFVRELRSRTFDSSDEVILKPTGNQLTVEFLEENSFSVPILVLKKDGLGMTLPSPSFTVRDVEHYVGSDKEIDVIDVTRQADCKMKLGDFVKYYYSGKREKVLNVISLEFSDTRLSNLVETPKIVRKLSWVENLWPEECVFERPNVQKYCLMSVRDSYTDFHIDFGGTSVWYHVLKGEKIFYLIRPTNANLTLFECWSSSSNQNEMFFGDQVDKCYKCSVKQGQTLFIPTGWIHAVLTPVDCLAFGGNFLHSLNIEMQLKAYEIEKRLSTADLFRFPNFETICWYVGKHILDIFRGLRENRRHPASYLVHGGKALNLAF
Outline: as §1

Structure (SMILES) | IC50 (KDM4A (JMJD2A)) | IC50 (KDM4B (JMJD2B)) | IC50 (KDM5B (PLU-1)) | IC50 (KDM6B (JMJD3)) | IC50 (KDM7 (PHF8))
CN(C)CCCCNCc1cc(CN)ccn1 [Compound 2, [2-({[4-(dimethylamino)butyl]-amino}methyl)pyridin-4-yl]methanamine] | > 2.5 µM | > 2.5 µM | > 2.5 µM | > 2.5 µM | > 2.5 µM
CN(C)CCNCc1ccnc(CNCCCN(C)Cc2ccccc2)c1 [Compound 18, benzyl[3-({[4-({[2-(dimethylamino)ethyl]-amino}methyl)pyridin-2-yl]methyl}-amino)propyl]-methylamine] | > 2.5 µM | > 2.5 µM | 0.25 to 2.5 µM | > 2.5 µM | > 2.5 µM
COCCNCc1ccnc(CNCCCN(C)Cc2ccccc2)c1 [Compound 19, benzyl(3-{[(4-{[(2-methoxyethyl)amino]-methyl}pyridin-2-yl)methyl]amino}-propyl)methylamine] | > 2.5 µM | > 2.5 µM | 0.25 to 2.5 µM | > 2.5 µM | > 2.5 µM
COc1ccccc1CN1CCC(NC(=O)CNCc2cc(CNC3CC3)ccn2)CC1 [Compound 20, 2-[({4-[(cyclopropylamino)-methyl]pyridin-2-yl}methyl)amino]-N-{1-[(2-methoxyphenyl)methyl]-piperidin-4-yl}acetamide] | < 0.25 µM | < 0.25 µM | < 0.25 µM | > 2.5 µM | < 0.25 µM
CCN(CCN(C)C)C(=O)CN(Cc1cc(CNC(=O)C(F)(F)F)ccn1)C(=O)C(F)(F)F [Compound 26, N-[(2-{[N-({[2-(dimethylamino)ethyl]-(ethyl)carbamoyl}-methyl)-2,2,2-trifluoroacetamido]-methyl}pyridin-4-yl)methyl]-2,2,2-trifIuoroacetamide] |  |  | > 2.5 µM |  | 
COC(=O)CNCc1cc(/C=N/C2CC2)ccn1 [Compound 59, methyl 2-[({4-[N-cyclopropyl-carboximidoyl]pyridin-2-yl}methyl)amino]-acetate] | 0.25 to 2.5 µM | < 0.25 µM | < 0.25 µM | > 2.5 µM | 0.25 to 2.5 µM
CCN(CC)CCCCNCc1cc(C2NCCCN2C)ccn1 (stereo not drawn) [Compound 68, [4-(diethylamino)butyl]({[4-(1-methyl-1,3-diazinan-2-yl)pyridin-2-yl]methyl})amine] |  |  | < 0.25 µM |  | 
O=Cc1ccnc(CNCCCCN(Cc2ccccc2)C2CC2)c1 [Compound 109, 2-[({4-[benzyl-(cyclopropyl)amino]-butyl}amino)methyl]-pyridine-4-carbaldehyde] | > 2.5 µM | < 0.25 µM | < 0.25 µM |  | > 2.5 µM
O=Cc1ccnc(CNCC(=O)NC2CCN(Cc3ccccc3)C2)c1 (stereo not drawn) [Compound 113, N-(1-benzylpyrrolidin-3-yl)-2-{[(4-formylpyridin-2-yl)methyl]amino}-acetamide] | 0.25 to 2.5 µM | < 0.25 µM | < 0.25 µM | > 2.5 µM | > 2.5 µM
